Measured values from BindingDB's records for doi:10.3109/14756360903213481 (Brno University of Technology, 2010).

Tests used:
[1] = biological target: Acetylcholinesterase (Electrophorus electricus, UniProt O42275); assay: Acetylcholinesterase Inhibition Assay; conditions: pH 8; 30 °C
Experimental: (§1) The assay was carried out according to the Ellman method [Ellman et al., Biochem. Pharmacol., 7:88-95], optimized for 96-well microplates using a Tecan Sunrise™ absorbance reader. […] For the blank, 50 μL of 0.26 U mL^−1 AChE was replaced by the same volume of 0.1 M phosphate buffer pH 8.0. In a typical assay, solutions of AChE, DTNB, and the compound to be tested, as well as the phosphate buffer, were mixed and incubated for 30 min at 30°C. Next, the reaction was started by the addition of ATCI solution. […] Reaction velocities were determined from the slopes of the linear portions of the graphs of time versus concentration of 5-thio-2-nitrobenzoate. All assays were done in triplicate.

[2] = biological target: Carboxylic ester hydrolase (Equus caballus, UniProt Q9N1N9); assay: Acetylcholinesterase Inhibition Assay; conditions: pH 8; 30 °C
Carboxylic ester hydrolase, sequence (Q9N1N9 whole entry): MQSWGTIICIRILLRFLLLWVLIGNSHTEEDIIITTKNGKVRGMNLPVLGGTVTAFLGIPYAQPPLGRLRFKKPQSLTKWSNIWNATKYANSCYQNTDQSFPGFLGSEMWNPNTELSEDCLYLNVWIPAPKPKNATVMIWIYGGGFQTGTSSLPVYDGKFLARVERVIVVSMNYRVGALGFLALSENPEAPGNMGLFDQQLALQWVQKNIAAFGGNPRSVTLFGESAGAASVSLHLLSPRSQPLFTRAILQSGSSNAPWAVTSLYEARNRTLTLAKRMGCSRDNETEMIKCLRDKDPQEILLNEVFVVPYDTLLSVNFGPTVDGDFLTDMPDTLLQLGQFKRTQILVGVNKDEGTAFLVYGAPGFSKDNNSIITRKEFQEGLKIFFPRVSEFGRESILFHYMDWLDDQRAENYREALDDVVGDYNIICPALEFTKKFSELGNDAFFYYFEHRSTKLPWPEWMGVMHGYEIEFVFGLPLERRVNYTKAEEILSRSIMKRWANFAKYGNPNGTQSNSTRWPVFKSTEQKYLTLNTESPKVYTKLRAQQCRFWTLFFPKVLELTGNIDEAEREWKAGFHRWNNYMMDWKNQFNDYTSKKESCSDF
Experimental: as §1

Acetylcholinesterase, sequence (O42275 whole entry): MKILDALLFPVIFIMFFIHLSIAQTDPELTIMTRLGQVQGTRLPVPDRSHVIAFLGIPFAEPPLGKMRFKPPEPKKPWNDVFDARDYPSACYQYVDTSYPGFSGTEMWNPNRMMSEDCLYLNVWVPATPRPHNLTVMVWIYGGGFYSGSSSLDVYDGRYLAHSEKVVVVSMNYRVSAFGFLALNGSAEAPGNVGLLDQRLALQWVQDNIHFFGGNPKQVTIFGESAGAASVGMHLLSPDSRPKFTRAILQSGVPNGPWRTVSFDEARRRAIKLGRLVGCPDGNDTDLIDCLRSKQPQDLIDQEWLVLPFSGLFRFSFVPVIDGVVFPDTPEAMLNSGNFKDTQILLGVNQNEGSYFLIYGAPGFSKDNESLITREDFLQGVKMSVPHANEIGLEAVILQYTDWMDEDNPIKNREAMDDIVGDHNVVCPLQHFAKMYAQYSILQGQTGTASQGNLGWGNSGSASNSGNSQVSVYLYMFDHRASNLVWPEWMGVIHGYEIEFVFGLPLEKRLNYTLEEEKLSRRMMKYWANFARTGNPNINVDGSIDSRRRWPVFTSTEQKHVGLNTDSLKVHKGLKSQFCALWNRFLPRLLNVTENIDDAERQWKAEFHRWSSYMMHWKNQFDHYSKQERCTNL

SMILES	IC50 [1] [µM]	IC50 [2] [µM]
O=C1C(Cc2ccc(O)cc2)=C(Cc2ccc(O)cc2)C(=O)C1(c1ccc(O)cc1)C1(c2ccc(O)cc2)C(=O)C(Cc2ccc(O)cc2)=C(Cc2ccc(O)cc2)C1=O [Nostotrebin 6]	5.5	6.8
COc1ccc2c3c1O[C@H]1C[C@@H](O)C=C[C@@]31CCN(C)C2 [galantamine]		23.3
